What was measured:
m-cGAS = m-cGAS (Mus musculus, UniProt Q8C6L5); experiment: Cell-free mouse cGAS enzyme inhibition assay (ATP depletion, Kinase-Glo Max); format: biochemical; settings: 1 h; for inhibition at 10 µM: read-out: m-cGAS, conc. 10 μM; for inhibition at 1 µM: read-out: m-cGAS, conc. 1 μM
Method: (§1) Cell-free mouse and human cGAS enzyme inhibition assay (Table 2). Activity of all compounds (in Table 1) against m-cGAS (30 nM) and or h-cGAS, (100 nM) was determined by measuring the conversion of ATP and GTP (100 μM each) to cGAMP in the presence of dsDNA (5 ug/mL) in a reaction buffer composed of Tris-HCl (20 mM, pH7.4), NaCl (150 mM), MnCl2 (0.2 mM, h-cGAS) or MgCl2 (5 mM, m-cGAS) and Tween-20 (0.01%), and the remaining ATP concentration using Kinase-Glo®Max Luminescent Kinase Assay (Promega, Madison, WI), as described (Lama, et. al., 2019). Briefly, 10 μl of a master mix of 0.4 mM ATP, 0.4 mM GTP, 0.02 mg/mL dsDNA in the reaction buffer supplemented with 2 mM DTT was added to reaction wells containing TDI-6570 or TDI-8246 (2× of the desired concentration) in the same buffer ([…]) using a Thermo 8-channel Multidrop Combi dispenser. Next, 10 μl of a 4×m-cGAS (0.120 μM) or h-cGAS (0.4 μM) solution in the reaction buffer supplemented with 2 mM DTT was added to appropriate wells. Similar sets of reactions without cGAS or the inhibitor was set by adding the buffer alone. The reactions with the plates sealed were incubated at 37° C. (1 hour for m-cGAS and 3 hours for h-cGAS) and stopped by addition of 40 μl of the Kinase-Glo®Max. The luminescence was recorded in relative light units (RLUs) using a Biotek Synergy H1 Hybrid plate reader (BioTek, Winooski, VT). […] All reactions were run in triplicates and calculated using GraphPad Prism 9. The values represent mean IC50±S.D.

IFNB = experiment: THP1-Dual cells transfected with DNA, Ifnb expression (Quantiluc); format: cell-based; settings: Homo sapiens; for inhibition at 10 µM: THP-1, 10 μM; for inhibition at 30 µM: THP-1, 30 μM
Method: (§2) Evaluation of active cGAS inhibitors in THP1 cells (Table 3). Cellular activity of all compounds (in Table 3) was determined using THP1-Dual™ cells as described (Lama et. al., 2019). THP1-Dual™ cells (Invivogen) (50000 cells in 100 μl media) were seeded into each well of a 96-well plate and treated with compounds at various dilution for 4 hours. Subsequently, cells were transfected with DNA (2 ug/ml) and lipofectamine and incubate the cells were incubated overnight. Ifnb expression was measured in cell supernatant using Quantiluc, nfkb expression was determined using Quantiblue, and cell viability using Promega® CellTiter-Glo®.

THP1 cells = experiment: THP1-Dual cells, cell viability (CellTiter-Glo); format: cell-based
Method: as §2

NFkB-SEAP = experiment: THP1-Dual cells transfected with DNA, nfkb expression (Quantiblue); format: cell-based; settings: Homo sapiens; for inhibition at 10 µM: THP-1, 10 μM; for inhibition at 30 µM: THP-1, 30 μM
Method: as §2

h-cGAS = h-cGAS (Homo sapiens, UniProt Q8N884); experiment: Cell-free human cGAS enzyme inhibition assay (ATP depletion, Kinase-Glo Max); format: biochemical; settings: 3 h; for inhibition at 1 µM: read-out: h-cGAS, conc. 1 μM; for inhibition at 10 µM: read-out: h-cGAS, conc. 10 μM
Method: as §1

m-cGAS, sequence (Q8C6L5 whole entry): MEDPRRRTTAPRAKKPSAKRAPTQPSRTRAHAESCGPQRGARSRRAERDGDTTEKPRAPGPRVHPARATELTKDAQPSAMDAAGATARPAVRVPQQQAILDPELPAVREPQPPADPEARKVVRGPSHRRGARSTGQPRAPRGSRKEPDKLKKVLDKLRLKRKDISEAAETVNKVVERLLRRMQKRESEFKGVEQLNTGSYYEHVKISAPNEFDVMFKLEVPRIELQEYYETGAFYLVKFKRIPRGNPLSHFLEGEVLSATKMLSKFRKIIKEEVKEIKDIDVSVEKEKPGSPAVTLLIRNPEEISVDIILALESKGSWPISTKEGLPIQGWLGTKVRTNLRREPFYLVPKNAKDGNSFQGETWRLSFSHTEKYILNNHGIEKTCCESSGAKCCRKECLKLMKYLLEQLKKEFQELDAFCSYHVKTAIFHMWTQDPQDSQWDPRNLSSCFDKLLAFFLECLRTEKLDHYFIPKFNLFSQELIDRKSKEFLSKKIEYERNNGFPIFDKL
h-cGAS, sequence (Q8N884 whole entry): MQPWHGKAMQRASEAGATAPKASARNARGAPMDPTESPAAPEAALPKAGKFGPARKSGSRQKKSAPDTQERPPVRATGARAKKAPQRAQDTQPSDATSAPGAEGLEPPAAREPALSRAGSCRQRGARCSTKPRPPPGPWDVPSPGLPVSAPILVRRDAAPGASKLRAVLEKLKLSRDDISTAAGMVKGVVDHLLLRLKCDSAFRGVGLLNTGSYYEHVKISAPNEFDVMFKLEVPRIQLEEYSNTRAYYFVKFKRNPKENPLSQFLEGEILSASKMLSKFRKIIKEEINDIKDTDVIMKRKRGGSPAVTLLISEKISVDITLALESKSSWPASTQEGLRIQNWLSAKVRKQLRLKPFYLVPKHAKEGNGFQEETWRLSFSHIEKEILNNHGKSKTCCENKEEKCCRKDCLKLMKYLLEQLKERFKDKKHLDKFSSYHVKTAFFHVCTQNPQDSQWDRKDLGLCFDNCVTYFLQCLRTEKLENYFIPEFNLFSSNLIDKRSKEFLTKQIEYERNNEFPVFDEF

SMILES | inhibition at 10 µM (m-cGAS) [%] | inhibition at 1 µM (h-cGAS) [%] | inhibition at 10 µM (h-cGAS) [%] | inhibition at 1 µM (m-cGAS) [%] | inhibition at 10 µM (IFNB) [%] | inhibition at 30 µM (IFNB) [%] | Cell viability 10 μM (THP1 cells) | Cell viability 30 μM (THP1 cells) | inhibition at 10 µM (NFkB-SEAP) [%] | inhibition at 30 µM (NFkB-SEAP) [%]
O=C(CO)N1CCc2oc3c(Cl)c(Cl)ccc3c2C1 [Compound 21] | 75 to 100 |  | 25 to 49 |  |  | < 24 |  | +++ (+, ++, and +++ mean the compound respectively shows 25-49%; 50-74%; or 75-100% viability to cells) |  | < 24
NCC(=O)N1CCc2oc3c(Cl)c(Cl)cc(-c4cncnc4)c3c2C1 [Compound 32] | 75 to 100 | 25 to 49 | 50 to 74 | 50 to 74 | < 24 | < 24 | +++ (+, ++, and +++ mean the compound respectively shows 25-49%; 50-74%; or 75-100% viability to cells) | +++ (+, ++, and +++ mean the compound respectively shows 25-49%; 50-74%; or 75-100% viability to cells) | < 24 | < 24
NCC(=O)N1CCc2sc3c(Cl)c(Cl)cc(-c4cncnc4)c3c2C1 [Compound 53] | 75 to 100 | 0 to 24 | 50 to 74 | 0 to 24 | < 24 | 75 to 100 | +++ (+, ++, and +++ mean the compound respectively shows 25-49%; 50-74%; or 75-100% viability to cells) | − (Cell viability <24%, in THP1 cells is expressed as “−”) | 25 to 49 | 50 to 74
NCC(=O)N1CCc2c(sc3c(Cl)c(Cl)cc(-c4ccc(N)nc4)c23)C1 [Compound 75] | 75 to 100 | 0 to 24 | 50 to 74 |  | 75 to 100 | 75 to 100 | +++ (+, ++, and +++ mean the compound respectively shows 25-49%; 50-74%; or 75-100% viability to cells) | +++ (+, ++, and +++ mean the compound respectively shows 25-49%; 50-74%; or 75-100% viability to cells) | < 24 | 75 to 100
NCC(=O)N1CCc2c(sc3c(Cl)c(Cl)cc(-c4ccco4)c23)C1 [Compound 80] | 75 to 100 | 25 to 49 | 75 to 100 | 25 to 49 | 50 to 74 | 75 to 100 | +++ (+, ++, and +++ mean the compound respectively shows 25-49%; 50-74%; or 75-100% viability to cells) | − (Cell viability <24%, in THP1 cells is expressed as “−”) | 50 to 74 | 75 to 100
NCC(=O)N1CCc2c(sc3c(Cl)c(Cl)cc(-c4ccsc4)c23)C1 [Compound 82] | 50 to 74 | 0 to 24 | 50 to 74 | 0 to 24 | 50 to 74 | 75 to 100 | +++ (+, ++, and +++ mean the compound respectively shows 25-49%; 50-74%; or 75-100% viability to cells) | + (+, ++, and +++ mean the compound respectively shows 25-49%; 50-74%; or 75-100% viability to cells) | 75 to 100 | 75 to 100
Cn1ccc(-c2cc(Cl)c(Cl)c3sc4c(c23)CCN(C(=O)CN)C4)n1 [Compound 83] | 75 to 100 | 25 to 49 | 50 to 74 | 25 to 49 | 50 to 74 | 75 to 100 | ++ (+, ++, and +++ mean the compound respectively shows 25-49%; 50-74%; or 75-100% viability to cells) | − (Cell viability <24%, in THP1 cells is expressed as “−”) | 75 to 100 | 75 to 100

The next lines start with results.

inhibition at 10 µM (m-cGAS) [%] | inhibition at 1 µM (h-cGAS) [%] | inhibition at 10 µM (h-cGAS) [%] | inhibition at 1 µM (m-cGAS) [%] | SMILES | inhibition at 10 µM (IFNB) [%] | inhibition at 30 µM (IFNB) [%] | Cell viability 10 μM (THP1 cells) | Cell viability 30 μM (THP1 cells) | inhibition at 10 µM (NFkB-SEAP) [%] | inhibition at 30 µM (NFkB-SEAP) [%]
0 to 24 | 25 to 49 | 75 to 100 |  | CC(C)(N)C(=O)N1CCc2[nH]c3c(Cl)c(Cl)cc(-c4cc[nH]n4)c3c2C1 [Compound 20] | 50 to 74 | 75 to 100 | +++ (+, ++, and +++ mean the compound respectively shows 25-49%; 50-74%; or 75-100% viability to cells) | +++ (+, ++, and +++ mean the compound respectively shows 25-49%; 50-74%; or 75-100% viability to cells) | 75 to 100 | 75 to 100
50 to 74 | 25 to 49 | 50 to 74 | 0 to 24 | O=C(CO)N1CCc2oc3c(Cl)c(Cl)cc(-c4cncnc4)c3c2C1 [Compound 25] |  | < 24 | +++ (+, ++, and +++ mean the compound respectively shows 25-49%; 50-74%; or 75-100% viability to cells) |  | < 24 | 
75 to 100 |  | 25 to 49 | 25 to 49 | Cn1cc(-c2cc(Cl)c(Cl)c3sc4c(c23)CCN(C(=O)CO)C4)cn1 [Compound 62] | 50 to 74 |  | +++ (+, ++, and +++ mean the compound respectively shows 25-49%; 50-74%; or 75-100% viability to cells) |  | < 24 | 
50 to 74 | 0 to 24 | 50 to 74 | 0 to 24 | NCC(=O)N1CCc2c(sc3c(Cl)c(Cl)cc(-c4cncnc4)c23)C1 [Compound 73] | < 24 | 75 to 100 | +++ (+, ++, and +++ mean the compound respectively shows 25-49%; 50-74%; or 75-100% viability to cells) | − (Cell viability <24%, in THP1 cells is expressed as “−”) | < 24 | 75 to 100
75 to 100 | 0 to 24 | 50 to 74 |  | CNc1ccc(-c2cc(Cl)c(Cl)c3sc4c(c23)CCN(C(=O)CN)C4)cn1 [Compound 76] | 75 to 100 | 75 to 100 | +++ (+, ++, and +++ mean the compound respectively shows 25-49%; 50-74%; or 75-100% viability to cells) | +++ (+, ++, and +++ mean the compound respectively shows 25-49%; 50-74%; or 75-100% viability to cells) | < 24 | 75 to 100
75 to 100 | 25 to 49 | 50 to 74 | 25 to 49 | NCC(=O)N1CCc2c(sc3c(Cl)c(Cl)cc(-c4cc[nH]n4)c23)C1 [Compound 77] | 25 to 49 | 75 to 100 | +++ (+, ++, and +++ mean the compound respectively shows 25-49%; 50-74%; or 75-100% viability to cells) | − (Cell viability <24%, in THP1 cells is expressed as “−”) | 50 to 74 | 75 to 100
75 to 100 | 0 to 24 | 50 to 74 | 25 to 49 | NCC(=O)N1CCc2c(sc3c(Cl)c(Cl)cc(-c4cccnc4)c23)C1 [Compound 78] | 75 to 100 | 75 to 100 | + (+, ++, and +++ mean the compound respectively shows 25-49%; 50-74%; or 75-100% viability to cells) | − (Cell viability <24%, in THP1 cells is expressed as “−”) | 50 to 74 | 75 to 100
75 to 100 |  | 25 to 49 | 25 to 49 | NCC(=O)N1CCc2c(sc3c(Cl)c(Cl)cc(-c4ccncc4)c23)C1 [Compound 79] | 75 to 100 | 75 to 100 | + (+, ++, and +++ mean the compound respectively shows 25-49%; 50-74%; or 75-100% viability to cells) | − (Cell viability <24%, in THP1 cells is expressed as “−”) | 50 to 74 | 75 to 100
50 to 74 | 0 to 24 | 50 to 74 | 0 to 24 | NCC(=O)N1CCc2c(sc3c(Cl)c(Cl)cc(-c4cccs4)c23)C1 [Compound 81] | 50 to 74 | 75 to 100 | +++ (+, ++, and +++ mean the compound respectively shows 25-49%; 50-74%; or 75-100% viability to cells) | − (Cell viability <24%, in THP1 cells is expressed as “−”) | 75 to 100 | 75 to 100
